Laboratory results as given in US20080305040A1, “In Vivo or in Vitro Method For Detecting Amyloid Deposits Having at Least One Amyloidogenic Protein” (UNIVERSITY OF PITTSBURGH, priority 2005, published 2008).

Test system: amyloid deposits in heart tissue, lung tissue, bladder tissue, lymph node tissue and bone from a subject with AL amyloidosis
Experiment: Imaging of tissues from AL amyloidosis subject: staining of paraffin sections, viewed with a UV filter set
Format: binding
Settings: 100 nM stain, 60 min, deparaffinized paraffin sections from a subject with AL amyloidosis, FIG. 1
Method: Paraffin sections of heart, lung, bladder, lymph node and bone from a subject with AL amyloidosis were deparaffinized in xylene and stained with 100 nM X-34 [Styren et al. J Histochem Cytochem 48:1223-1232 (2000)] in 20% ethanol/80% 150 mM Tris Buffer (pH 7.4) or 100 nM 2-(4′-methylaminophenyl)-6-cyanobenzothiazole (6-CN-BTA-1) [Mathis et al. J Med Chem 46:2740-2754 (2003)] in PBS (pH 7.4) for 60 min followed by a brief, 5 second wash in water followed by coverslipping and viewing with an UV filter set (FIG. 1).

SMILES | binding to amyloid deposits in heart tissue, lung tissue, bladder tissue, lymph node tissue and bone
O=C(O)c1cc(/C=C/c2ccc(/C=C/c3ccc(O)c(C(=O)O)c3)cc2)ccc1O [Example X-34] | binding
CNc1ccc(-c2nc3ccc(C#N)cc3s2)cc1 [Example 6-CN-BTA-1, 2-(4′-methylaminophenyl)-6-cyanobenzothiazole] | binding
